# Measurements from US20180273573A1, “INHIBITORS OF MENAQUINONE BIOSYNTHESIS” (Memorial Sloan-Kettering Cancer Center, priority 2015, published 2018).
# Read-outs that look alike come from different tables or passages of the source.
# Assays:
# B. subtilis (ATCC 6051) = assay: MIC, Alamar blue assay; format: cell-based; settings: Bacillus subtilis, ATCC6051
# [1] = system: MRSA, S. aureus (ATCC BAA-1762); assay: MIC, Alamar blue assay; format: cell-based, methicillin-resistant S. aureus; settings: Staphylococcus aureus
# M. tuberculosis (H37Rv) = assay: MIC, Alamar blue assay; format: cell-based; settings: Mycobacterium tuberculosis
# [2] = system: B. subtilis, MRSA, M. tuberculosis and E. coli; assay: Antibacterial activity and MK4 growth rescue, statements over all bacteria tested; format: cell-based; settings: for increase in MIC values when complemented with exogenous menaquinone-4: B. subtilis, MRSA, M. tuberculosis
# E. coli MenE (ecMenE) = E. coli MenE (ecMenE) (Escherichia coli, UniProt P37353); assay: MenE-MenB coupled assay (enzyme inhibition, catalytic parameters); settings: read-out: E. coli MenE IC50; Table E6
# E. coli MenE (ecMenE), sequence (P37353 whole entry): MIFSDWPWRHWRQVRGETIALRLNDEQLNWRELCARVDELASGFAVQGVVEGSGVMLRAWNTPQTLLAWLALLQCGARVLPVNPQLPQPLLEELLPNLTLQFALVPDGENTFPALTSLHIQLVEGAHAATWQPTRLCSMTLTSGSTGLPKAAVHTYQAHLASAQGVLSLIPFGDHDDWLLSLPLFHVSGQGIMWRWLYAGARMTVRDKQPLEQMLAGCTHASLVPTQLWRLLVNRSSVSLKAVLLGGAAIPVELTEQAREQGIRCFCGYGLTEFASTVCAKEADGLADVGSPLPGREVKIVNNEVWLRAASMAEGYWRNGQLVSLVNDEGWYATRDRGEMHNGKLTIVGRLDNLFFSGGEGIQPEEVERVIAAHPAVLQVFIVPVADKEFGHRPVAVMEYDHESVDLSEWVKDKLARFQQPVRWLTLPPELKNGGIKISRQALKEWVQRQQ
# Method: Measurements were performed in triplicate for each compound.
# Analysis of the catalytic efficiency (kcat/KM) of the mutant enzymes compared to wild type MenE was performed using the MenE-MenB coupled assay described above.
# E. coli = assay: MIC, Alamar blue assay; format: cell-based, E. coli (K-12); settings: Escherichia coli; Table E2; ~90% cell death
# wild-type E. coli MenE = wild-type E. coli MenE (Escherichia coli, UniProt P37353); assay: Direct fluorescent binding assay (intrinsic tryptophan fluorescence)
# wild-type E. coli MenE, sequence (P37353 whole entry): as above
# Method: Difluoroindandiol 109 was titrated into a solution of wild-type E. coli MenE and the change in fluorescence was measured using a Quanta Master fluorimeter at excitation and emission wavelengths of 280 and 332 nm, respectively. Data was analyzed using the Morrison equation.
# Instead, to determine the Kd for 109, we used a direct binding assay in which the change in the intrinsic tryptophan fluorescence of ecMenE was monitored (see FIG. 14 for binding isotherm and data). […] The solution was stirred continuously, and fluorescence measurements were taken with a Quanta Master fluorimeter using excitation and emission wavelengths of 280 and 332 nm, respectively. Slit widths were optimized to 4 and 2 nm for excitation and emission, respectively. Data were corrected for the inner filter effect and then fit to the following equation using MATLAB: […]
# [3] = system: menaquinone levels in S. aureus ATCC BAA-1762 (MRSA); assay: Menaquinone levels by LC-MS/MS after lipid extraction; format: cell-based; settings: for decrease in menaquinone-8: MRSA, FIG. 9, two independent experiments
# Source text: The 1959 Blight/Dyer lipid extraction protocol was followed. Menaquinone levels were quantified by LC-MS/MS using standard curves generated with MK4 and MK9. A distribution of MKs are present in untreated MRSA with MK8 most abundant.
# Standard error shown for two independent experiments. *p≤0.05, **p≤0.01.
# To provide direct insight into the mode of action of the MenE inhibitors, we analyzed the effect of OSB-AMS on menaquinone-levels in S. aureus by tandem MS (FIG. 2), as follows. Cultures of S. aureus ATCC BAA-1762 (5 mL in Synthetic Broth medium with 10% glucose) were incubated overnight in a 37° C. shaker in the presence or absence of OSB-AMS (15.6 μg/mL final concentration). The Blight and Dyer (1959) lipid extraction protocol was used to isolate the menaquinone-containing fraction from the cells.^(5) Briefly, 0.75 mL of 1:2 (v/v) CHCl3:MeOH was added to 0.2 mL of culture. The mixture was vortexed thoroughly, and 0.25 mL of CHCl3 was added followed by further vortexing after which 0.25 mL of H2O was added. The mixture was then vortexed and centrifuged at 1000 rpm for 5 minutes at room temperature. The bottom phase was recovered, transferred to a glass vial and 200 μL was analyzed by APCI LC-MS/MS in positive ion mode using a Thermo TSQ Quantum Access (Thermo-Fisher) Triple Quadrupole Mass Spectrometer. Menaquinone levels were quantified using standard established for MK4 and MK9. Samples were introduced into the mass spectrometer by flow injection at 100 μL/min with 2:1 MeOH/CHCL3 as the solvent. Multiple Reaction Monitoring (MRM) was performed at 30 eV. MK4, MK5 and MK6 were quantified using the standard curve for MK4 whereas MK7, MK8, and MK9 were quantified using MK9.
# wild-type ecMenE = wild-type ecMenE (Escherichia coli, UniProt P37353)
# wild-type ecMenE, sequence (P37353 whole entry): as above
# Method: The direct binding of inhibitors to MenE was quantified using isothermal titration calorimetry (ITC). Measurements were made with a MicroCal VP-ITC instrument at 25° C. Inhibitor stock solutions (1 mM in NaHPO4 buffer pH 7.4 containing 150 mM NaCl and 1 mM MgCl2) were titrated in 4 μL increments into a 50 μM solution of MenE in pH 7.4 20 mM sodium phosphate buffer containing 150 mM sodium chloride and 1 mM magnesium chloride. The data were fit to a single binding site model with the Origin software package.
# [4] = Table E5, with addition of exogenous menaquinone-4 (10 μg/mL), read-out: B. subtilis MIC (in parentheses)
# [5] = Table E5, without menaquinone-4, read-out: B. subtilis MIC
# [6] = Table E5, with addition of exogenous menaquinone-4 (10 μg/mL), read-out: MRSA MIC (in parentheses)
# [7] = Table E5, without menaquinone-4, read-out: MRSA MIC
# [8] = Table E5, with addition of exogenous menaquinone-4 (10 μg/mL), read-out: M. tuberculosis MIC (in parentheses)
# [9] = Table E5, without menaquinone-4, read-out: M. tuberculosis MIC
# [10] = Table E2, ~90% cell death, read-out: B. subtilis MIC
# [11] = Table E2, ~90% cell death, read-out: MRSA MIC
# [12] = Table E2, ~90% cell death, read-out: M. tuberculosis MIC
SMILES,MIC (B. subtilis (ATCC 6051); [4]),MIC (B. subtilis (ATCC 6051); [5]),"MIC [1, 6]","MIC [1, 7]",MIC (M. tuberculosis (H37Rv); [8]),MIC (M. tuberculosis (H37Rv); [9]),increase in MIC values when complemented with exogenous menaquinone-4 [2],MIC (E. coli),MIC (B. subtilis (ATCC 6051); [10]),"MIC [1, 11]",MIC (M. tuberculosis (H37Rv); [12]),pKa (physchem),decrease in menaquinone-8 [3],also measured
"Nc1ncnc2c1ncn2[C@@H]1O[C@H](COS(=O)(=O)NC(=O)CC[C@]2(O)c3ccccc3[C@@H](O)C2(F)F)[C@@H](O)[C@H]1O [(1S,3R)-2, 5′-O—(N-[3″-((1S,3R)-2′″,2′″-difluoro-1′″,3′″-dihydroxy-1′″-indanyl)propanoyl]-sulfamoyl)adenosine]",31.2 µg/mL,15.6 µg/mL,31.2 µg/mL,31.2 µg/mL,62.5 µg/mL,31.2 µg/mL,,,,,,,,rescue by exogenous menaquinone-4 ([2]; cultures complemented with exogenous menaquinone-4): Some rescue
"Nc1ncnc2c1ncn2[C@@H]1O[C@H](COS(=O)(=O)NC(=O)CC[C@@]2(O)c3ccccc3[C@H](O)C2(F)F)[C@@H](O)[C@H]1O [(1R,3S)-2, 5′-O—(N-[3″-((1R,3S)-2′″,2′″-difluoro-1′″,3′″-dihydroxy-1′″-indanyl)propanoyl]sulfamoyl)adenosine]",31.2 µg/mL,15.6 µg/mL,31.2 µg/mL,15.6 µg/mL,62.5 µg/mL,15.6 µg/mL,2- to 4 fold,,,,,,,IC50 (E. coli MenE (ecMenE)): 5 µM
Nc1ncnc2c1ncn2[C@@H]1O[C@H](COS(=O)(=O)NC(=O)CCC2(O)c3ccccc3C(O)C2(F)F)[C@@H](O)[C@H]1O (mixture of isomers) [Compound 109],,,,,,,,> 500 µg/mL,31.2 µg/mL,15.6 µg/mL,15.6 µg/mL,11.5,,Kd (wild-type E. coli MenE): 120 ± 23 nM
Nc1ncnc2c1ncn2[C@@H]1O[C@H](COS(=O)(=O)NC(=O)CCC2(O)c3ccccc3C(O)C2(F)F)[C@@H](O)[C@H]1O (mixture of isomers) [Compound 2],62.5 µg/mL,15.6 µg/mL,62.5 µg/mL,15.6 µg/mL,62.5 µg/mL,15.6 µg/mL,four-fold increase,,,,,,31%,
Nc1ncnc2c1ncn2[C@@H]1O[C@H](COS(=O)(=O)NC(=O)CCC(=O)c2ccccc2-c2c(O)c(=O)c2=O)[C@@H](O)[C@H]1O (stereo in doubt) [Compound 106],,,,,,,,> 500 µg/mL,250 µg/mL,> 500 µg/mL,> 500 µg/mL,1.3,,cellular activity against any bacteria tested [2]: did not show cellular activity
"Nc1ncnc2c1ncn2[C@@H]1O[C@H](COS(=O)(=O)NC(=O)CCC(=O)c2ccccc2C(=O)O)[C@@H](O)[C@H]1O [OSB-AMS, o-succinylbenzoate-adenenosinemonosulfamate, reference compound]",,,,,,,,> 500 µg/mL,62.5 µg/mL,31.2 µg/mL,125 µg/mL,4,2.5 fold,"decrease in the levels of the menaquinones ([3]; OSB-AMS 15.6 μg/mL, overnight, 37° C.): 3-5 fold; Kd (wild-type ecMenE): 44 ± 11 nM; ΔG (wild-type ecMenE; ITC, 25° C., pH 7.4): -10.0 kcal/mol; ΔH (wild-type ecMenE; ITC, 25° C., pH 7.4): -2.0 ± 0.1 kcal/mol"
